According to PubChem BioAssay AID588654 (The Scripps Research Institute Molecular Screening Center, 2011):
The source made the active and inactive calls.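 How the source made its calls: active means EGF receptor protein level falling or rising by at least 30% versus DMSO-treated cells; inactive means the rest.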

Each compound was assayed against Epidermal growth factor receptor (Homo sapiens) (UniProt P00533) (assay: change in total EGFR protein, up or down, late-stage follow-up, counter-screen for KLF5 inhibitor project, HT29 cells, chemiluminescent western blot (AID 588654)). Conditions: 24 h, at 10 µM, stronger effect = higher value.
Sequence of Epidermal growth factor receptor (Homo sapiens) (P00533 whole entry, looked up): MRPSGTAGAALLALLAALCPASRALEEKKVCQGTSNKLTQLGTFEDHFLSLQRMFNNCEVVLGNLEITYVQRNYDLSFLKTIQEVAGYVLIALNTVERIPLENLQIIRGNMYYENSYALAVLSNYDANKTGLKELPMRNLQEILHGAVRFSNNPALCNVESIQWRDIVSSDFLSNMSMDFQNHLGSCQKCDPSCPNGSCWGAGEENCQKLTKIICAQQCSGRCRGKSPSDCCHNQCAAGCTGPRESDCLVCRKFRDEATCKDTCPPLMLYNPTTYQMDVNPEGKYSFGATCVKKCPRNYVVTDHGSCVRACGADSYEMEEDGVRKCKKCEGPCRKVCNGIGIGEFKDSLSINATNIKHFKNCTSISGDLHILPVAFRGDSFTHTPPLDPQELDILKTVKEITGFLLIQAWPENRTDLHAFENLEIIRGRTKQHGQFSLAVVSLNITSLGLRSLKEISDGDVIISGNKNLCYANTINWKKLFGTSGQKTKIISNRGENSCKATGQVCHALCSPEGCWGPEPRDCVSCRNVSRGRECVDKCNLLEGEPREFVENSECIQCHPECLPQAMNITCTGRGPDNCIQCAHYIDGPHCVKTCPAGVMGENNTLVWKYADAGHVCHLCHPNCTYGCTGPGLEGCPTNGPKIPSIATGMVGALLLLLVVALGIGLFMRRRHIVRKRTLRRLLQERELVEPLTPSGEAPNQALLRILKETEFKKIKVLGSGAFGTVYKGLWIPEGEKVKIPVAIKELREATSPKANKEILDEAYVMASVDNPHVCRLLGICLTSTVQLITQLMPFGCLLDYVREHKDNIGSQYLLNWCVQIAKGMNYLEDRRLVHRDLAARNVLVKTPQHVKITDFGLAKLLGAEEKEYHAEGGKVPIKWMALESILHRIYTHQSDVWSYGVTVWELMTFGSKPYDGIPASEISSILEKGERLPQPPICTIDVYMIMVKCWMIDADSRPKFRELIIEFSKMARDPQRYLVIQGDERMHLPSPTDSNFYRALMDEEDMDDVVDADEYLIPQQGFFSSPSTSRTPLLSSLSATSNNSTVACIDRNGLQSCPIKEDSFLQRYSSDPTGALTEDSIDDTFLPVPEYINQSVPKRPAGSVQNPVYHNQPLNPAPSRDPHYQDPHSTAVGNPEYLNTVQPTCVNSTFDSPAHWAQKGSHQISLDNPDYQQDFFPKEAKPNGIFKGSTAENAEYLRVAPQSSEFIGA

Compound	inhibition
CN(C(=O)COC(=O)/C=C/c1cccc([N+](=O)[O-])c1)C1CCS(=O)(=O)C1 (stereo not drawn)	16.4% (inactive)
CN(C(=O)CNC(=O)/C=C/c1cccc(Cl)c1)C1CCS(=O)(=O)CC1	7.26% (inactive)
CN(C(=O)CNC(=O)/C=C/c1cccc(Cl)c1)C1CCS(=O)(=O)C1 (stereo not drawn)	-0.393% (inactive)
